The results in this text go back to PMC6389506 (Cell chemical biology, 2017).

One assay has as its target CDK12 (Homo sapiens, UniProt Q9NYV4). Description: CE-MS intact mass shift and MS/MS of the labeled peptide. In kind it is cell-based.
The target of assay [1] is T1, CDK9 (Homo sapiens, UniProt P50750). The experiment in a line: KINOMEscan profiling / biochemical kinase assay.
For the next assay, the target named is CDK7 (Homo sapiens, UniProt P50613). The experiment in a line: biochemical kinase inhibition.
The target in another assay is CDK2 (Homo sapiens, UniProt P24941). The experiment in a line: biochemical kinase inhibition.
Assay [2] concerns the target T1, CDK9. The experiment in a line: biochemical kinase inhibition.

T1 sequence (P50750 whole entry): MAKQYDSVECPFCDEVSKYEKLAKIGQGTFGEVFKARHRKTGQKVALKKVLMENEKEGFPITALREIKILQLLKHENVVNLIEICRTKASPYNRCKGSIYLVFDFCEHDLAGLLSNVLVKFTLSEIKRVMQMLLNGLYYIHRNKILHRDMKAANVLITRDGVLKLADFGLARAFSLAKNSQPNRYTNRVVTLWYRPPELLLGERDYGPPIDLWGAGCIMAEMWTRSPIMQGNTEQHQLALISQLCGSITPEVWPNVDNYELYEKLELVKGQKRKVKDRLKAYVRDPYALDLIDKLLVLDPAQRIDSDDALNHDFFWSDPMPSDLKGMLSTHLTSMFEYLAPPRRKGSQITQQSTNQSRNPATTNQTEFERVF
Chain of CDK12 (Q9NYV4 whole entry): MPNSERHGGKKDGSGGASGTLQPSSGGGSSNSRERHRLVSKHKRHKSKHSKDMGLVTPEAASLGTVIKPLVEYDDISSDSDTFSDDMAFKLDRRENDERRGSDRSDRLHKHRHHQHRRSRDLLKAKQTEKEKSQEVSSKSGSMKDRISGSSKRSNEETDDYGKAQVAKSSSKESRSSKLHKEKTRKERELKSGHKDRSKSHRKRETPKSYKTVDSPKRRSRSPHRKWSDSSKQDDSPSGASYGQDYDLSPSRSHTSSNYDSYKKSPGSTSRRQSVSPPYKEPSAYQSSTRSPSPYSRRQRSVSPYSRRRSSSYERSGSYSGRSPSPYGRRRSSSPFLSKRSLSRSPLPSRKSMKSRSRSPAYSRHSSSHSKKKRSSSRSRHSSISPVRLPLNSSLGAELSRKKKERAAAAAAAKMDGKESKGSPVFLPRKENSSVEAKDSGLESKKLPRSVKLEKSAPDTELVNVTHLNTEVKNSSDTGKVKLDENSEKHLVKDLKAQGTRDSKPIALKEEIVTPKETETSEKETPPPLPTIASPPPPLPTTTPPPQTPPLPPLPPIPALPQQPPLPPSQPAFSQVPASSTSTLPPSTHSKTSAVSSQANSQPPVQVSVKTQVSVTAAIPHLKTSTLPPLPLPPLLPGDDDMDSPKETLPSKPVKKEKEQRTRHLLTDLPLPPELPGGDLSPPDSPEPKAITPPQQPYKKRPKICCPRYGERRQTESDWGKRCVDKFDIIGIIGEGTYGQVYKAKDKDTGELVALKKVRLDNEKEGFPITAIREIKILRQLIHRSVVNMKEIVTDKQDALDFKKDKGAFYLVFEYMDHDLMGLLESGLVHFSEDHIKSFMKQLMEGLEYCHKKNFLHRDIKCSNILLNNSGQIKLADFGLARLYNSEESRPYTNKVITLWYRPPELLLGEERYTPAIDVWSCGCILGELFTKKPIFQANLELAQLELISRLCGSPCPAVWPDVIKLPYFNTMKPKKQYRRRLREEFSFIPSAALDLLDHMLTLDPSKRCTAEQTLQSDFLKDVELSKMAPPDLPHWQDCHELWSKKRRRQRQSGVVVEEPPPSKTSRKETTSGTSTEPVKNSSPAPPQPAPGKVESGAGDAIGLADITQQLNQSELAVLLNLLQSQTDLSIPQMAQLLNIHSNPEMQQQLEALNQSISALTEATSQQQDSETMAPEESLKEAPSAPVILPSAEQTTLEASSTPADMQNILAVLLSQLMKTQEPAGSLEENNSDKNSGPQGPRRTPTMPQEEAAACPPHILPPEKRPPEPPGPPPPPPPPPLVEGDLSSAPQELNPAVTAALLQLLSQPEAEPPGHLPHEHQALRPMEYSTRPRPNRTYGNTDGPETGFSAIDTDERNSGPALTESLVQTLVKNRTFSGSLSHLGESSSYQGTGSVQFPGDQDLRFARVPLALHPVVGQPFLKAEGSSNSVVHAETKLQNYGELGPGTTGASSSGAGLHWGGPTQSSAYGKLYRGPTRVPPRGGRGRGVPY
Chain of CDK12 (O75909 whole entry partner): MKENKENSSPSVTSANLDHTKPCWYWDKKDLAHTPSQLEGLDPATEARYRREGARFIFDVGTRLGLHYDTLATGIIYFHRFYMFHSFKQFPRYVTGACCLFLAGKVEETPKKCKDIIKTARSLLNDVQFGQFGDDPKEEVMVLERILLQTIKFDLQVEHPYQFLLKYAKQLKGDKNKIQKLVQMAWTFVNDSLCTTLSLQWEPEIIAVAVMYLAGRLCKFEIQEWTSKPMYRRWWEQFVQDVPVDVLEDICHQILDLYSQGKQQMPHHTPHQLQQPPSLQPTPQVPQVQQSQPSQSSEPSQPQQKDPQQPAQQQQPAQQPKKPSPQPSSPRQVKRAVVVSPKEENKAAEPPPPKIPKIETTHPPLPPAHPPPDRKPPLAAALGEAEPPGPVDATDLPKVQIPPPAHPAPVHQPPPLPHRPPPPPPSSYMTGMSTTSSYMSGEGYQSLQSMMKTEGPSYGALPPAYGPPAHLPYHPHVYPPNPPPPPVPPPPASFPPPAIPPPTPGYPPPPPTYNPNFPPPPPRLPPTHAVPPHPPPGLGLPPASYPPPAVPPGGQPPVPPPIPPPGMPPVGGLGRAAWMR
Chain of CDK7 (P50613 2-346): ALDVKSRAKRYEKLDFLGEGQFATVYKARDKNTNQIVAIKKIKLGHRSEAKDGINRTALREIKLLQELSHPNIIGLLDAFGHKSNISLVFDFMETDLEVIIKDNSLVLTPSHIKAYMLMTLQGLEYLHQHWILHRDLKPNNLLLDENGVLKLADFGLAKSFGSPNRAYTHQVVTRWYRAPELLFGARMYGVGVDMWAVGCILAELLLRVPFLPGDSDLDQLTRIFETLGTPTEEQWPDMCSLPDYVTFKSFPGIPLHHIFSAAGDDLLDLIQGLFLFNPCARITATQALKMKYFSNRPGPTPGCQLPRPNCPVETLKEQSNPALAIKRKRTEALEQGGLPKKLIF
Chain of CDK7 (P51946 whole entry partner): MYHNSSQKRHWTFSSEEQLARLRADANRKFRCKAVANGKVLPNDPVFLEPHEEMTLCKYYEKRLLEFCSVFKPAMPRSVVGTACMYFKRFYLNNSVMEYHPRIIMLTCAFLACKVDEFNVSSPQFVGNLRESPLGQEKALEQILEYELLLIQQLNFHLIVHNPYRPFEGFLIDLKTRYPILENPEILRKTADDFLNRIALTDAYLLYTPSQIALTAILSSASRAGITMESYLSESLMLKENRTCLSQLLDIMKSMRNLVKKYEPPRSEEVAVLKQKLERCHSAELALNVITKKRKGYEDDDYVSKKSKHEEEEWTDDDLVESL

Consider `C=CC(=O)Nc1cccc(Nc2cc(N3CCCC[C@H]3CCO)nc3c(CC)cnn23)c1` [E9, (S)-N-(3-(3-Ethyl-5-(2-(2-Hydroxyethyl)piperidin-1-yl)pyrazolo[1,5-a]pyrimidin-7-ylamino)phenyl)acrylamide], for which the “CE-MS intact mass shift and MS/MS of the labeled peptide; bio-THZ1 competition p” value at CDK12 is listed as less than 25 nM. The “KINOMEscan profiling / biochemical kinase assay” value at CDK9 [1] is listed as “E9 still retained fairly strong biochemical activity against CDK9”.
On to `CCC(=O)Nc1cccc(Nc2cc(N3CCCC[C@H]3CCO)nc3c(CC)cnn23)c1` [E9-R, (S)-N-(3-((3-Ethyl-5-(2-(2-Hydroxyethyl)piperidin-1-yl)pyrazolo[1,5-a]pyrimidin-7-yl)amino)phenyl)propionamide], for which the biochemical kinase inhibition result was “E9-R exhibited improved biochemical inhibition of CDK2, CDK7, and CDK9 compared with E9” on CDK7; “E9-R exhibited improved biochemical inhibition of CDK2, CDK7, and CDK9 compared with E9” on CDK2; “E9-R exhibited improved biochemical inhibition of CDK2, CDK7, and CDK9 compared with E9” on CDK9 [2].
